Test results as given in patent US11135185B2, “Uses of curcumin derivative” (Merry Life Biomedical Company, Ltd., priority 2018, dated 2021).
Entries after “also recorded” stand apart in the source; their conditions may differ.

Columns and labels:
ApoE promoter = ApoE promoter luciferase reporter assay in Huh-7 cells; type: cell-based, human; conditions: for luciferase activity of ApoE promoter: Huh-7, serial truncations of ApoE promoter from -1061/+45 to -154/+45, 24 h (FIG. 3C)
Source text: The promoter region of human APOE gene has been identified and published [[…]]. We constructed ApoE promoter region from -1061 +45 in two-steps. The first fragment was amplified using polymerase chain reaction (PCR) by forward primer APOE-[…] ID NO: 1) paired with reverse primer APOE-R-BglII: [NT] ID NO: 2) and was ligated to the pGL3 basic vector (Promega, Madison, Wis., USA) by using Kpn I and Bgl II restriction sites. The second fragment was amplified using PCR by forward primer APOE-F-BglII: [NT] ID NO: 3) paired with reverse primer APOE-[…] ID NO: 4) and was ligated to the pGL3-basic (Promega) by using Bgl II and Hind III restriction sites. The serial deletion mutants of ApoE promoter, -705/+45, -456/+45, -344/+45, -247/+45, -154/+45 and -32/+45 were amplified using PCR and based on the full-length ApoE promoter (-1061/+45). The generated fragments were digested by Kpn I and Xba I and then inserted into the pGL3-basic vector (Promega). To generate the deletion mutants of ApoE promoter, primers were used to amplify the promoter for different lengths. The forward primers were APOE-705-[…] ID NO: 5), APOE-456-[…] ID NO: 6), APOE-344-[…] ID NO: 7), APOE-247-[…] ID NO: 8), APOE-154-[…] ID NO: 9), and APOE-32-[…] ID NO: 10) which were paired with reverse primer APOE-[…] ID NO: 4) to amplify the target region of the promoter. For disrupting the binding sites of PPAR and/or AP-2 on ApoE promoter, we conducted the point mutation method and the primers paired used were as follows: -154[…] ID NO: 11) paired with -154[…] ID NO: 12), -154[…] ID NO: 13) paired with -154[…] ID NO: 14), -154[…] ID NO: 15) paired with -154[…] ID NO: 16), -154[…] ID NO: 17) paired with -154[…] ID NO: 18). The pGL3-154/+45-ApoE-Luc was used as the template for PCR reaction to amplify the mutant of PPAR or AP-2 binding sites in the ApoE promoter. The PCR products were digested by Dpn I and transformed into TOP10 competent cells (Invitrogen, Carlsbad, Calif., USA). After LB plating and extraction of plasmids, positive colonies were confirmed by restriction enzyme digestion. All of the promoter constructs were verified by sequencing. The Huh-7 cells were seeded in 24-well culture plates and then co-transfected with serial deletion of pGL3-ApoE-Luc (firefly luciferase) with pRL-TK renilla luciferase reporter. Following overnight incubation, the transfected cells were treated with traditional curcumin, and TML-6 for an additional 24h. […] The relative luciferase units (RLU) were measured using a luminometer (GLOMAX Multi, Promega). […] The RLUs are expressed as means plus standard deviation of three independent experiments.

[1] = system: Aβ production in N2a/APPswe cells; assay: Amyloid β ELISA of culture medium of N2a/APPswe stable cell line; type: cell-based; conditions: 24 h incubation, ELISA (FIG. 2)
Description: Extracellular levels of soluble Aβ40 and Aβ42 were determined by LEGEND MAX™ 3-Amyloid x-40 and X-42 ELISA Kit (Biolegend). N2A neuroblastoma cell line with stably over expressing APP Swedish mutation (APPswe) was designed as N2A/APPswe cell line (kindly grafted from Prof. Kuo, Yu-Min's Lab). 8×10^5 N2A/APPswe cells were seeded on a 6-cm dish. After overnight incubation, the cells were treated with curcumin or TML-6 for 24 h. The culture supernatant was collected and centrifuged at 1,500×g at 4° C. for 5 min to remove cells. The Aβ levels of the culture supernatants of various treatments were assayed according to the manufacture's instrumentations. The samples were detected at OD620 and the calculation of Aβ levels was based on the standard curves of Aβ40 and Aβ42, respectively.

ApoE = assay: Western blotting of ApoE in Huh-7 cells; type: cell-based, human; conditions: 24 h treatment, Western blotting (FIG. 1)
Description: (§1) The human hepatoma Huh-7 cell lines were obtained from the Health Science Research Resources Bank (JCRB0403; Osaka, Japan) and were cultured in Dulbecco's modified Eagle's medium (DMEM, Gibco) supplemented with 100 U/ml penicillin, […] streptomycin and 10% fetal bovine serum (FBS, Biological industry). Cells were cultured at 37° C. in a humidified atmosphere of 5% CO2 incubator (Forma Scientific, Marietta, Ohio, USA). The cells were seeded in 24-well, 6 or 10 cm dishes overnight the day before the experiment. On the next day, the cells were treated with curcumin (Sigma) and TML-6. The stock concentration was prepared at 5 mg/mL (for curcumin) and 10 mM (for TML-6).
(§2) After cells were seeded and treated with curcumin and its derivatives for 24h, cells were washed with ice-cold PBS and lysed with 100 μL of RIPA lysis buffer (Pierce Biotechnology, Rockford, Ill., USA) supplemented with protease and phosphatase inhibitors (Roche Diagnostics, Mannheim, Germany). Cell lysates were further cleaned by centrifugation at 14000 rpm 4° C. for 15 min. Protein concentration was determined using a Bradford assay (Bio-Rad, Hercules, Calif., USA). For western blot analysis, 20 μg of each sample was prepared for SDS-PAGE and denatured at 95° C. for 10 min. […]

APP = assay: Western blotting of APP in Huh-7 cells; type: cell-based, human; conditions: 24 h treatment, Western blotting (FIG. 1)
Description: The human hepatoma Huh-7 cell lines were obtained from the Health Science Research Resources Bank (JCRB0403; Osaka, Japan) and were cultured in Dulbecco's modified Eagle's medium (DMEM, Gibco) supplemented with 100 U/ml penicillin, 100 mg/ml streptomycin and 10% fetal bovine serum (FBS, Biological industry). Cells were cultured at 37° C. in a humidified atmosphere of 5% CO2 incubator (Forma Scientific, Marietta, Ohio, USA). The cells were seeded in 24-well, 6 or 10 cm dishes overnight the day before the experiment.
After cells were seeded and treated with curcumin and its derivatives for 24h, cells were washed with ice-cold PBS and lysed with 100 μL of RIPA lysis buffer (Pierce Biotechnology, Rockford, Ill., USA) supplemented with protease and phosphatase inhibitors (Roche Diagnostics, Mannheim, Germany). Cell lysates were further cleaned by centrifugation at 14000 rpm 4° C. for 15 min. Protein concentration was determined using a Bradford assay (Bio-Rad, Hercules, Calif., USA). For western blot analysis, 20 μg of each sample was prepared for SDS-PAGE and denatured at 95° C. for 10 min. The prepared samples from total lysates were loaded and separated by SDS-PAGE (8% or 10%), and then transferred to PVDF membranes (pore size 0.45 μm; PerkinElmer) by semi-dry transfer cell (Bio-Rad). […]

[2] = system: Iba-1 (microglial activation biomarker) in 3×Tg AD transgenic mice; assay: Iba-1 immunofluorescence staining in 3×Tg-AD transgenic mice; type: in vivo; conditions: six-month-old 3×Tg AD mice fed 150 mg/kg for four months, compared to curcumin (FIG. 5)
Source text: (§3) Triple-transgenic mice as a model of Alzheimer's disease (3×Tg-AD, APP Swedish, MAPT P301L, and PSEN1 M146V) were bred at the laboratory animal center of National Cheng Kung University (NCKU) [Oddo S, Caccamo A, Shepherd J D, Murphy M P, Golde T E, Kayed R, Metherate R, Mattson M P, Akbari Y, LaFerla F M: Triple-transgenic model of Alzheimer's disease with plaques and tangles: intracellular Abeta and synaptic dysfunction. Neuron 2003, 39(3):409-421]. Experimental procedures for handling the mice were in accordance with the guidelines of the Institutional Animal Care and Use Committee (IACUC) of NCKU. The mice were housed in a room maintained on a 12-h light-dark cycle and fed ad libitum. […] These mice developed plaque and tangle pathology. Aβ deposition as progressive deposition appeared as early as six months.
(§4) Mice were anesthetized and euthanized with 10% chloral hydrate (400 mg/kg, i.p.) and then transcardial perfusion was performed with 0.01 M PBS (pH 7.4). The brains were post-fixed in 4% PFA for 2 days and dehydrated with 30% sucrose at 4° C. The hydrated brain was embedded with optimal cutting temperature compound (OCT, Leica) and quick-frozen at −30° C. The blocks were sectioned at 16 um-thick. Slices were stored at −20° C. […] The images were captured by TissureFAXS microscopy system and positive signals were quantified by TissueQuest software module (TissueGnostic, Vienne, Austria).

phospho-NF-κB = assay: Western blotting of phospho-NF-κB in Huh-7 cells; type: cell-based, human; conditions: 24 h treatment, Western blotting (FIG. 1)
Description: as §1, §2

[3] = system: Aβ levels in the brain of 3×Tg AD transgenic mice; assay: Aβ immunofluorescence staining of brain sections of 3×Tg-AD transgenic mice; type: in vivo; conditions: six-month-old 3×Tg AD mice fed 150 mg/kg for four months, immunofluorescence (FIG. 4)
Source text: as §3, §4

soluble Aβ = conditions: AD transgenic mouse, within hours, ApoE-dependent; cited from earlier work

SMILES	ApoE promoter activity after disruption of proximal PPARα/RXRα and AP2 binding sites (ApoE promoter; Huh-7, -154/+45 mutants MdelAP2 and MdelPPAR, 24 h (FIG. 3E))	luciferase activity of ApoE promoter (ApoE promoter)	promoter activity of ApoE-154MdelAP2/+45 mutant compared with wild-type -154/+45 (ApoE promoter; Huh-7, siRNA knockdown experiment, 24 h (FIG. 3F))	Aβ42/40 ratio [1]	production of Aβ40 [1]	production of Aβ42 [1]	protein expression level of Apo E (ApoE)	protein expression level of APP (APP)	expression of Iba-1 (brain inflammation) [2]	protein expression level of phospho-NF-κB (phospho-NF-κB)	Aβ levels in the brain [3]	clearance of soluble Aβ (soluble Aβ)
CCN(CC)C(=O)CC(C)(C(=O)/C=C/c1ccc(OC)c(OC)c1)C(=O)/C=C/c1ccc(OC)c(OC)c1 [TML-6]	significantly suppressed	gradually increases	suppressed	significantly suppresses	significantly suppresses	significantly suppresses	significantly increased	decreased in a dose-dependent manner	significantly better activity than curcumin; also recorded: significantly inhibited	decreased in a dose-dependent manner	significantly better activity than curcumin; also recorded: significantly decrease	–
C=C(c1ccc(C(=O)O)cc1)c1cc2c(cc1C)C(C)(C)CCC2(C)C [bexarotene]	–	–	–	–	–	–	–	–	–	–	–	enhanced clearance
COc1cc(/C=C/C(=O)CC(=O)/C=C/c2ccc(O)c(OC)c2)ccc1O [curcumin, diferuloyl methane]	–	gradually increases	–	–	–	–	upregulate ApoE	inhibit the APP synthesis	–	inhibit NFκB	–	–
